In US12180255B2, “Compositions and methods for derepressing RE1 silencing transcription factor target genes” (Alcamena Stem Cell Therapeutics, LLC, priority 2019, dated 2024):
Where a SMILES comes first, the peptide text is derived from it. [ ]: non-standard residue; d: D form. Gly(Dodecyl) = CCCCCCCCCCCC[C@H](N)C(=O)O

How the values were obtained:
Assay type in all cases: biochemical
PPM1A = target: T1, PPM1A (Homo sapiens, UniProt P35813); test: Off target phosphatase activity on phosphorylated REST peptide; settings: 10000 nM RPP
T1 sequence (P35813 1-382): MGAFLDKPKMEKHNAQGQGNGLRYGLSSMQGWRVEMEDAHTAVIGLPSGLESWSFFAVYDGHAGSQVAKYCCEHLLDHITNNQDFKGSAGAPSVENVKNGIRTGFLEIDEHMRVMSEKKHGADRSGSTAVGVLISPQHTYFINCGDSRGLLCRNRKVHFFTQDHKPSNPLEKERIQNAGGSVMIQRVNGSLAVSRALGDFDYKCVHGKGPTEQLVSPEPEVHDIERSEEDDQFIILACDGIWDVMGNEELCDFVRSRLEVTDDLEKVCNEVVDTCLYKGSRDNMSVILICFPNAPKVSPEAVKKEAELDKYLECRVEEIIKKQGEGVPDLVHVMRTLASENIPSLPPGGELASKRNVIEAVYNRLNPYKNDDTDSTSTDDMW

PP3CA = PP3CA (Homo sapiens, UniProt Q08209); test: as above; settings: 10000 nM RPP
CTDSP1 = target: T2, CTDSP1 (Homo sapiens, UniProt Q9GZU7); test: In vitro CTDSP1 phosphatase activity on phosphorylated REST peptide; settings: phosphorylated REST peptide substrate; read-out: EC50, inhibition of CTDSP1 activity
T2 construct: GSGS linker + His6 (C)
T2 sequence (Q9GZU7 with tags, fused parts or gaps): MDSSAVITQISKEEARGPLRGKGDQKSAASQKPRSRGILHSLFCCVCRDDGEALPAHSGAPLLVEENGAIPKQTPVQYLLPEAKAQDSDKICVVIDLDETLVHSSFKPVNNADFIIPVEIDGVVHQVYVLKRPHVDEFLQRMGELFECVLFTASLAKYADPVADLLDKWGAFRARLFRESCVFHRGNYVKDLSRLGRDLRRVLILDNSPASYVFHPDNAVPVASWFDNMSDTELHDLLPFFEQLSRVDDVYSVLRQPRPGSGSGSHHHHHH
Description: FIG. 25. In vitro CTDSP1 phosphatase activity (relative to GST control) on the REST peptide (TEDpSPPp[…] (SEQ ID NO: 329)) as a substrate after exposure to 1 μM of RPP (SEQ ID NO: 1) or one of its variants (Table 3).
FIG. 26. […] N=5, error bars are standard deviation.
Results: FIG. 25—The top 51 most abundant RPP variants identified in the RNA display/protein evolution screen are listed in-Table 3 in the order of most (V1) to least (V51) abundant peptides. The primers used to make these peptides are listed in-Table 5. A phosphatase activity screen (Table 6, FIG. 25) was used to assess the ability of the top 51 RPPV to inhibit CTDSP1 phosphatase activity at amino acids 861 and 864 on the endogenous phosphorylated REST peptide (TEDpSPPp[…] (SEQ ID NO: 329)).
The phosphorylated REST peptide (TEDpSPPp[…] (SEQ ID NO: 329)) was synthesized by GeneScript. Phosphatase reactions were performed with 10 mM Tris pH 8, 10 mM MgCl2, 100 nM CTDSP1, 0.5 μM phosphate sensor (Thermo Fischer), 50 μM of REST peptide and various concentrations of peptide-GST fusions at room temperature for 10 min. All assays were performed in 96-well pates (Corning P/N 3686) rinsed with water 10 times. Fluorescence was measured by BioTek Synergy HTX using kinetic read with excitation at 420/27 nm and emission at 485/20 nm.

CCCCCCCCCCCC[C@@H]1NC(=O)[C@@H](CCCNC(=N)N)NC(=O)[C@@H](CCCNC(=N)N)NC(=O)[C@@H](Cc2c[nH]c3ccccc23)NC(=O)[C@@H](Cc2c[nH]c3ccccc23)NC(=O)[C@@H](CCCNC(=N)N)NC(=O)[C@@H](CCC(=O)O)NC(=O)[C@@H](CC(=O)O)NC(=O)[C@@H](CC(C)C)NC(=O)[C@@H](CCC(=O)O)NC(=O)[C@H]2CCCN2C(=O)[C@H]2CCCN2C(=O)[C@@H](CCC(=O)O)NC(=O)[C@H]2CCCN2C(=O)[C@H]2CCCN2C(=O)[C@@H](CC(C)C)NC(=O)[C@H]2CCCN2C(=O)[C@@H](CCCCN)NC(=O)[C@@H](CCCNC(=N)N)NC(=O)[C@@H](CCCNC(=N)N)NC(=O)[C@@H](CCCNC(=N)N)NC(=O)[C@@H](CCCNC(=N)N)NC(=O)[C@@H](CCCNC(=N)N)NC1=O [SEQ ID NO: 12] (cyclo([dR][dW][dW][dR][dR][Gly(Dodecyl)][dR][dR][dR][dR][dR][dK][dP][dL][dP][dP][dE][dP][dP][dE][dL][dD][dE]))
% Activity (Average N = 5) (PPM1A): 102.786%
% Activity (Average N = 5) (PP3CA): 100.222%
EC50 (CTDSP1): ~20 nM
